Assays:
barnacle cypris larvae = experiment: settling and metamorphosis of barnacle cypris larvae in Petri dish with filtered seawater; format: in vivo, Balanus improvisus; conditions: 20 cypris larvae in 5 ml filtered seawater; for inhibition of settling rate of barnacle cypris larvae, compared between substances and control: 1 μM and 10 μM, accumulative settling frequency over 10 days (FIG. 1)
Procedure: (§1) All the below described experiments are on the species Balanus improvisus.
In a Petri dish containing 5 ml of filtered seawater, 20 cypris larvae and a defined concentration of the different pharmacological agents. […] 20 barnacle cypris larvae were added into a Petri dish containing 5 ml filtered seawater and different concentration of haloperidole and SCH 23990. […] Instead 1 μM of SCH 23390 inhibits the settling rate almost completely. Typically, 0.01-1.0% of the dopamine antagonist effects the desired result, typically dissolved in ethanol and mixed with commercially available paints, such as VC 17 New Technology (solid paint) International Coatings (Akzo Nobel bv, Arnhem, NL), SPF (Self polishing, SPC) (Loutrec AB, Lidingo, Sweden), TF (combined solid/ablative) (Loutrec AB), Fabi Eco (ablative paint) International Coatings (Akzo Nobel bv).

[1] = system: release of barnacle adhesive; experiment: release of barnacle adhesive; design: species or system Balanus improvisus; conditions: in vivo
Description: as §1
The release of the adhesive is governed by a G-protein coupled receptor and it is possible to stimulate release of the adhesive glands by adding dopamine. According to the same principle, it is possible to block the release of the adhesive proteins by using a dopamine antagonist that block the action of dopamine. […] The invention herein includes use of SCH23390, and salts and derivatives thereof, as well as other D1 or D5 receptor antagonists such as […], SCH 39166, SCH 233388 and the like or antagonists against other receptors with the same function.

| Structure (SMILES) | inhibition of settling rate of barnacle cypris larvae, compared between substances and control (barnacle cypris larvae) | effect on settlement rate of barnacle cypris larvae (barnacle cypris larvae; 1 μM, accumulative settling over 10 days (FIG. 1)) | inhibition of the release of barnacle adhesive [1] |
| --- | --- | --- | --- |
| CN1CCc2cc(Cl)c(O)cc2[C@@H](c2ccccc2)C1 [SCH 23390, (R)-(+)-7-Chloro-8-hydroxy-3-methyl-1-phenyl-2,3,4,5-tetrahydro-1H-3-benzazepine] | effectively inhibits the settling rate | almost complete reducing effect | can inhibit the release of barnacle adhesive |
| O=C(CCCN1CCC(O)(c2ccc(Cl)cc2)CC1)c1ccc(F)cc1 [haloperidol] | less effective | – | – |
